Tests used:
[1] = test system: NIH3T3 cell line (D5C3) transformed with temperature-sensitive v-abl mutant gene; test: Blocking transformed phenotype of D5C3 cells; type: cell-based, murine; settings: pentoxifylline 1 mM, Ciprofloxacin 50 μg/ml
Description: An NIH3T3 cell line ([MUT]) provides target cells which were transformed by an activated oncogene. The cells were transformed with a temperature-sensitive v-abl mutant gene. This mutant gene encodes a temperature-sensitive v-abl protein that produces a non-oncogenic product at a non-permissive temperature due to a lack of tyrosine phosphorylation. The cells were incubated at the permissive temperature (33° C.) for 5 days after passage with and without pentoxifylline (1 mM).

T cell proliferation = settings: Singer et al., Bone Marrow Transplantation (in press); cited from earlier work
[2] = test system: PA and DAG levels in human glomerular mesangial cells; test: Invention assay: HPLC of lipids from IL-1-stimulated mesangial cells; type: cell-based; settings: HMC incubated with diacylglycerol kinase inhibitor
Description: The compounds of Formula I are shown to modulate the effects of primary stimuli which elevate levels of the relevant subspecies of PA and DAG using the assay system of the invention. In general for the assay, the cells to be tested are first incubated with the primary stimulating agent for various time periods and fixed in ice-cold methanol. The lipids are extracted using, for example, chloroform:methanol 2:1 (v/v), and the extracts are then subjected to HPLC as described by Bursten and Harris, Biochemistry (1991)------. In this method, a Rainin mu-Porasil column is used with a 3:4 hexane:propanol organic carrier and a 1-10% water gradient during the first 10 minutes of separation. Detection of the peaks in the elution pattern is by absorption in the range of ultraviolet which detects isolated double bonds. Thus, the relevant peaks of unsaturated PA and DAG are shown in the elution pattern. It is important to note that the assay method permits discrimination between various forms of PA and DAG so that those relevant to the pathway affected by the compounds of Formula I can be measured directly. Confirmation of the nature of the acyl substituents of these components is accomplished using fast-atom bombardment mass spectroscopy. Thus, the relevant unsaturated (non-arachidonic) PA and DAG subspecies may be detected. The time periods employed are 5-60 seconds after stimulation with the primary stimulus, such as a cytokine. This technique permits assessment of the levels of various lipid components as a function of time.
To test the effect of the compounds of the invention, the candidate compound is included in the initial incubation at various concentrations. Fixing, extraction and HPLC are conducted as above. The effect of the candidate compound is then reflected in a lowering of the relevant PA and DAG levels as compared to the cells without candidate in the control as illustrated hereinbelow.
Human glomerular mesangial cells were incubated with IL-1 for various time periods of 5-60 seconds and the cells were fixed in ice-cold methanol, and the lipids extracted using chloroform:methanol 2:1 (v/v). It is very important that the fixing/extraction process be conducted quickly so that the decomposition of unstable intermediates is halted.
The extracts were subjected to HPLC on a Rainin mu-Porasil column with a 3:4 hexane:propanol organic carrier and a 1-10% water gradient during the first 10 minutes of separation. The relative concentration of each lipid species is determined using absorption at 206 nm (A206), which follows unsaturated acyl content of lipid species. […] The absolute mass of each lipid species is determined by lisolation of the lipid using a fraction collector, repurification on the HPLC column. […] Protein concentration is determined using the Bradford technique. […]

O=C(O)c1cn(C2CC2)c2cc(N3CCNCC3)c(F)cc2c1=O [Ciprofloxacin]
effect on the transformed phenotype [1]: significant effect

Cn1c(=O)n(CCCCC(C)(C)O)c(=O)c2[nH]cnc21 [HWA138, reference compound]
suppression of T cell proliferation (T cell proliferation): minimal or no suppression

CCOCn1cnc2c1c(=O)n(CCCCC(C)(C)O)c(=O)n2C [HWA448, reference compound]
suppression of T cell proliferation (T cell proliferation): active

CC(O)CCCCn1c(=O)c2c(ncn2C)n(C)c1=O (centres unmarked) [M1, 1-(5-hydroxyhexyl)-3,7-dimethylxanthine]
suppression of T cell proliferation (T cell proliferation): active

CC(O)C(O)CCCn1c(=O)c2c(ncn2C)n(C)c1=O (centres unmarked) [M3, 1-(4,5-dihydroxyhexyl) -3,7-dimethylxanthine]
suppression of T cell proliferation (T cell proliferation): minimal or no suppression

Cn1cnc2c1c(=O)n(CCCCC(=O)O)c(=O)n2C [M4, 1-(4-carboxybutyl)-3,7-dimethylxanthine]
suppression of T cell proliferation (T cell proliferation): minimal or no suppression

Cn1cnc2c1c(=O)n(CCCC(=O)O)c(=O)n2C [M5, 1-(3-carboxypropyl)-3,7-dimethylxanthine]
suppression of T cell proliferation (T cell proliferation): minimal or no suppression

Cc1nc2sccn2c(=O)c1CCN1CCC(=C(c2ccccc2)c2ccc(F)cc2)CC1 [R 50922]
HPLC pattern (reappearance of PA after IL-1) [2]: does not alter the HPLC pattern

Source: patent US5585380A, “Modulation of cellular response to external stimuli” (priority 1995, dated 1996)
